Measured values published in article PMC9387934, “Randomized single oral dose phase 1 study of safety, tolerability, and pharmacokinetics of Iminosugar UV-4 Hydrochloride (UV-4B) in healthy subjects” (PLoS Neglected Tropical Diseases, 2022).
Values joined by “and” are separate entries in the source; they are usually repeats but may differ in a detail not shown here. Equal entries are not always repeated.

Assay: Phase 1a single ascending dose study: UV-4 plasma concentrations and PK parameters (LC-MS/MS, noncompartmental)
Format: in vivo
Conditions: human plasma
Method: UV-4 ((2R,3R,4R,5S)-2-(hydroxymethyl)-1-(9-methoxynonyl)piperidine-3,4,5-triol, also called N-(9’-methoxynonyl)-1-deoxynojirimycin, or MON-DNJ) hydrochloride was evaluated in a first-in-human, randomized, single-center, double-blind, placebo-controlled, parallel group, single ascending dose Phase 1a clinical trial in healthy subjects (Figs 1 and 2, ClinicalTrials.gov Identifier NCT02061358 https://clinicaltrials.gov/ct2/show/NCT02061358). The primary objective was to determine the safety and tolerability of a single-ascending oral dose of UV-4 hydrochloride (Fig 3). […] The secondary objective was to determine PK parameters describing absorption and elimination of UV-4 following a single oral dose of UV-4 hydrochloride. Eight cohorts of eight subjects each were enrolled and completed the study. In each cohort, six subjects received UV-4 as the hydrochloride; two received placebo. Subjects were screened against study eligibility criteria up to four weeks (Days -28 to -2) before admission to the clinic (Day -1). Dosing was performed on an inpatient basis. Subjects remained in clinic for 48 hours post-dosing for PK sample collection and safety assessments and were discharged from the clinic on Day 3. Subjects returned to the clinic on Day 4 for additional safety assessments, then again on Day 9 ± 1 for a final follow-up visit.
Eligible subjects were healthy males and females, age 18–45 years, with a body mass index between 18 and 30 kg/m^2 inclusive and a minimum body weight of 60 kg. Subjects were considered healthy based on medical history, physical exam, vital signs, 12-lead electrocardiogram (ECG), clinical laboratory tests (hematology, blood chemistry, urinalysis), viral serology, and drug and alcohol screening. Male and female subjects of childbearing potential were required to use adequate contraception over the course of the clinical trial. […] Only subjects who met all inclusion and none of the exclusion criteria prior to administration of the investigational product were enrolled into the study (no exemptions were granted). A total of 64 subjects were enrolled (eight cohorts of eight subjects each). In each of the eight cohorts, six subjects were randomized to receive a single dose of UV-4 (3 to 1000 mg, depending on cohort) as the hydrochloride salt, and two subjects to receive placebo. Cohort size of six active subjects was based on analysis that increasing cohort size above six in a first-in-human study gains little in the ability to observe a drug induced event, and results in observing more events that are not related to study drug. Two of the eight subjects in each cohort (sentinel subjects; one active and one placebo) received their doses at least 48 h before the remaining subjects in each cohort.
On each day of use, bulk drug substance (UV-4B for solubilization, SAI Life Sciences Ltd. Telangana, India) was removed from a single-use container, weighed at the study center, and solubilized in 20 mL sterile water for injection (SWFI) (Hospira Inc. Illinois, United States of America). Weight of solid drug substance was converted to dose of UV-4 by applying purity and salt correction factor per pharmacy manual when preparing the dosing solution. UV-4B solution was administered orally with 10 mL of taste-masking agent, OraSweet-SF (Paddock Laboratories LLC, Minneapolis, United States of America) in a total volume of 30 mL, to assist in maintaining study blinding. Placebo was SWFI (20 mL) plus OraSweet-SF (10 mL). Concentrations and doses were calculated and expressed as the active free base form, UV-4. This methodology is consistent with USP<1121>, which recommends that the strength of a drug product or preparation is expressed in terms of the active moiety. Following consumption of active or placebo solution, the dosing container was rinsed with 50 mL of tap water also consumed by subjects. […]

With COCCCCCCCCCN1C[C@H](O)[C@@H](O)[C@H](O)[C@H]1CO [UV4] the “CONCENTRATION UV4” value (Cohort 2, nominal day 1, nominal hour 0) was “<LLOQ (0.500) ng/mL”, the “CONCENTRATION UV4” value (Cohort 3, nominal day 1, nominal hour 0) was “<LLOQ (0.500) ng/mL” and the “CONCENTRATION UV4” value (Cohort 4, nominal day 1, nominal hour 0) was “<LLOQ (0.500) ng/mL”. The “CONCENTRATION UV4” value (Cohort 4, nominal day 1, nominal hour 0, individual subjects) was “<LLOQ (0.500) ng/mL and 0.569 ng/mL and 1.02 ng/mL”, the “CONCENTRATION UV4” value (Cohort 4, nominal day 1, nominal hour 0, subjects with all post-dose samples <LLOQ (treatment arm not given)) was 0.657 ng/mL and the “CONCENTRATION UV4” value (Cohort 4, nominal day 1, nominal hour 0.5) was “<LLOQ (0.500) ng/mL”. For the same compound, the “CONCENTRATION UV4” value (Cohort 4, nominal day 1, nominal hour 0.5, individual subjects) was 439 ng/mL and 598 ng/mL and 942 ng/mL and 1250 ng/mL and 160 ng/mL, the “CONCENTRATION UV4” value (Cohort 4, nominal day 1, nominal hour 0.5, subjects with all post-dose samples <LLOQ (treatment arm not given)) was “<LLOQ (0.500) ng/mL” and the “CONCENTRATION UV4” value (Cohort 4, nominal day 1, nominal hour 1) was “<LLOQ (0.500) ng/mL”. The “CONCENTRATION UV4” value (Cohort 4, nominal day 1, nominal hour 1, individual subjects) was 589 ng/mL and 571 ng/mL and 858 ng/mL and 762 ng/mL and 642 ng/mL, the “CONCENTRATION UV4” value (Cohort 4, nominal day 1, nominal hour 1, subjects with all post-dose samples <LLOQ (treatment arm not given)) was “<LLOQ (0.500) ng/mL” and the “CONCENTRATION UV4” value (Cohort 4, nominal day 1, nominal hour 1.5) was “<LLOQ (0.500) ng/mL”. The “CONCENTRATION UV4” value (Cohort 4, nominal day 1, nominal hour 1.5, individual subjects) was 754 ng/mL and 487 ng/mL and 860 ng/mL and 621 ng/mL and 699 ng/mL, the “CONCENTRATION UV4” value (Cohort 4, nominal day 1, nominal hour 1.5, subjects with all post-dose samples <LLOQ (treatment arm not given)) was “<LLOQ (0.500) ng/mL” and the “CONCENTRATION UV4” value (Cohort 4, nominal day 1, nominal hour 2) was “<LLOQ (0.500) ng/mL”. For the same compound, the “CONCENTRATION UV4” value (Cohort 4, nominal day 1, nominal hour 2, individual subjects) was 583 ng/mL and 406 ng/mL and 636 ng/mL and 479 ng/mL and 610 ng/mL, the “CONCENTRATION UV4” value (Cohort 4, nominal day 1, nominal hour 2, subjects with all post-dose samples <LLOQ (treatment arm not given)) was “<LLOQ (0.500) ng/mL” and the “CONCENTRATION UV4” value (Cohort 4, nominal day 1, nominal hour 2.5) was “<LLOQ (0.500) ng/mL”. The “CONCENTRATION UV4” value (Cohort 4, nominal day 1, nominal hour 2.5, individual subjects) was 516 ng/mL and 439 ng/mL and 447 ng/mL and 365 ng/mL and 519 ng/mL, the “CONCENTRATION UV4” value (Cohort 4, nominal day 1, nominal hour 2.5, subjects with all post-dose samples <LLOQ (treatment arm not given)) was “<LLOQ (0.500) ng/mL” and the “CONCENTRATION UV4” value (Cohort 4, nominal day 1, nominal hour 3) was “<LLOQ (0.500) ng/mL”. The “CONCENTRATION UV4” value (Cohort 4, nominal day 1, nominal hour 3, individual subjects) was 495 ng/mL and 428 ng/mL and 393 ng/mL and 327 ng/mL and 437 ng/mL, the “CONCENTRATION UV4” value (Cohort 4, nominal day 1, nominal hour 3, subjects with all post-dose samples <LLOQ (treatment arm not given)) was “<LLOQ (0.500) ng/mL” and the “CONCENTRATION UV4” value (Cohort 4, nominal day 1, nominal hour 4) was “<LLOQ (0.500) ng/mL”. The “CONCENTRATION UV4” value (Cohort 4, nominal day 1, nominal hour 4, individual subjects) was 368 ng/mL and 298 ng/mL and 302 ng/mL and 236 ng/mL and 338 ng/mL, the “CONCENTRATION UV4” value (Cohort 4, nominal day 1, nominal hour 4, subjects with all post-dose samples <LLOQ (treatment arm not given)) was “<LLOQ (0.500) ng/mL” and the “CONCENTRATION UV4” value (Cohort 4, nominal day 1, nominal hour 6) was “<LLOQ (0.500) ng/mL”. The “CONCENTRATION UV4” value (Cohort 4, nominal day 1, nominal hour 6, individual subjects) was 184 ng/mL and 187 ng/mL and 216 ng/mL and 141 ng/mL and 189 ng/mL, the “CONCENTRATION UV4” value (Cohort 4, nominal day 1, nominal hour 6, subjects with all post-dose samples <LLOQ (treatment arm not given)) was “<LLOQ (0.500) ng/mL” and the “CONCENTRATION UV4” value (Cohort 4, nominal day 1, nominal hour 9) was “<LLOQ (0.500) ng/mL”. The “CONCENTRATION UV4” value (Cohort 4, nominal day 1, nominal hour 9, individual subjects) was 101 ng/mL and 118 ng/mL and 128 ng/mL and 70.4 ng/mL and 77.3 ng/mL, the “CONCENTRATION UV4” value (Cohort 4, nominal day 1, nominal hour 9, subjects with all post-dose samples <LLOQ (treatment arm not given)) was “<LLOQ (0.500) ng/mL” and the “CONCENTRATION UV4” value (Cohort 4, nominal day 1, nominal hour 12) was “<LLOQ (0.500) ng/mL”. For the same compound, the “CONCENTRATION UV4” value (Cohort 4, nominal day 1, nominal hour 12, individual subjects) was 54.3 ng/mL and 66.4 ng/mL and 79.7 ng/mL and 42.1 ng/mL and 37.6 ng/mL, the “CONCENTRATION UV4” value (Cohort 4, nominal day 1, nominal hour 12, subjects with all post-dose samples <LLOQ (treatment arm not given)) was “<LLOQ (0.500) ng/mL” and the “CONCENTRATION UV4” value (Cohort 4, nominal day 1, nominal hour 18) was “<LLOQ (0.500) ng/mL”. The “CONCENTRATION UV4” value (Cohort 4, nominal day 1, nominal hour 18, individual subjects) was 18.1 ng/mL and 34.0 ng/mL and 43.3 ng/mL and 16.6 ng/mL, the “CONCENTRATION UV4” value (Cohort 4, nominal day 1, nominal hour 18, subjects with all post-dose samples <LLOQ (treatment arm not given)) was “<LLOQ (0.500) ng/mL” and the “CONCENTRATION UV4” value (Cohort 4, nominal day 2, nominal hour 24, individual subjects) was 12.5 ng/mL and 26.6 ng/mL and 30.8 ng/mL and 10.2 ng/mL. For the same compound, the “CONCENTRATION UV4” value (Cohort 4, nominal day 2, nominal hour 24, subjects with all post-dose samples <LLOQ (treatment arm not given)) was “<LLOQ (0.500) ng/mL”, the “CONCENTRATION UV4” value (Cohort 4, nominal day 2, nominal hour 36, individual subjects) was 4.31 ng/mL and 11.5 ng/mL and 12.0 ng/mL and 3.22 ng/mL and the “CONCENTRATION UV4” value (Cohort 4, nominal day 2, nominal hour 36, subjects with all post-dose samples <LLOQ (treatment arm not given)) was “<LLOQ (0.500) ng/mL”. For the same compound, the “CONCENTRATION UV4” value (Cohort 4, nominal day 3, nominal hour 48, individual subjects) was 2.04 ng/mL and 4.82 ng/mL and 6.34 ng/mL and 1.52 ng/mL and the “CONCENTRATION UV4” value (Cohort 4, nominal day 3, nominal hour 48, subjects with all post-dose samples <LLOQ (treatment arm not given)) was “<LLOQ (0.500) ng/mL”.
